For test [1], the target named is T1, Type-2 angiotensin II receptor (Rattus norvegicus, UniProt P35351).
T1 sequence (P35351 whole entry): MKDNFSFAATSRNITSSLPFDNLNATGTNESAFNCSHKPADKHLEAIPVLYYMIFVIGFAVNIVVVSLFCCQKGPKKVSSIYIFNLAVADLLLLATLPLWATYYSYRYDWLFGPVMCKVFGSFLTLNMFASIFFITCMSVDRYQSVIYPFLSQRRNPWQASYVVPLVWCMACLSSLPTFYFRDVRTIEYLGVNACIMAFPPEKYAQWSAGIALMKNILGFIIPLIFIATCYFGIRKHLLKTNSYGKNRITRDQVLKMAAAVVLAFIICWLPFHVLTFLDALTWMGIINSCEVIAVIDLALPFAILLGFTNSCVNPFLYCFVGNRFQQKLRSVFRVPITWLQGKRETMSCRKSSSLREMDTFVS
The experiment in a line: In vitro antagonist activity against angiotensin II type 2 (AT2) receptor in rat midbrain using [125I]- Sar, Ile AII. In kind it is functional.

In test [2] the target is T2, Type-1 angiotensin II receptor (Oryctolagus cuniculus, UniProt P34976).
T2 sequence (P34976 whole entry): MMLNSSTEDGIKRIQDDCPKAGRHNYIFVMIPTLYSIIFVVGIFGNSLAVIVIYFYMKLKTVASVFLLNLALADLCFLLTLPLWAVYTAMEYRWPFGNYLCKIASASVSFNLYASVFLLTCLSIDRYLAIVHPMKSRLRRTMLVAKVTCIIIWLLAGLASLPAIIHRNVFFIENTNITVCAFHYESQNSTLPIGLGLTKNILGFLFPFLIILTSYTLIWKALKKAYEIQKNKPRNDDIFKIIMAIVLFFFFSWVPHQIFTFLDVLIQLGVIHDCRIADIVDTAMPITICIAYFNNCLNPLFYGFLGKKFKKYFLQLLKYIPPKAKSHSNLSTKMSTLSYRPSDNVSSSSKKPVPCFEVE
The test is described as follows: In vitro antagonist activity against angiotensin II receptor type 1 in rabbit aorta using [125I]-Sar, Ile AII. It is filed as functional, tissue-based.

Structures are written as SMILES. A value given as a limit tells only on which side of the number the result lay.

For the molecule `CCc1nc2c(C)cc(C)nc2n1Cc1ccc(N(CC)C(C(=O)O)c2cc(C(F)(F)F)cc(C(F)(F)F)c2)cc1` (stereo not given), the figures for the IC50 in test [1] and in test [2] were 12 µM and 1.9 µM, respectively.

Regarding `CCc1nc2c(C)cc(C)nc2n1Cc1ccc(N(CC2CC2)C(C(=O)O)c2ccccc2)cc1` (stereo not given), the values for the IC50 in test [1] and in test [2] were 2.2 µM and 0.031 µM, respectively.

Consider `CCc1nc2c(C)cc(C)nc2n1Cc1ccc(N(CC)C(C(=O)O)c2cccc(C)c2)cc1` (stereo not given), for which the figures for the IC50 in test [1] and in test [2] were 2.1 µM and 0.066 µM, respectively.

Consider `CCc1nc2c(C)cc(C)nc2n1Cc1ccc(N(C)C(C(=O)O)c2cc(F)ccc2F)cc1` (stereo not given), for which the IC50 (commonly the point on the concentration scale where inhibition reaches its midpoint) in test [1] was more than 10 µM; in test [2] it was more than 0.1 µM.

On to `C=CCN(c1ccc(Cn2c(CC)nc3c(C)cc(C)nc32)cc1)C(C(=O)O)c1ccccc1` (stereo not given), for which the IC50 in test [1] was found to be 0.49 µM; in test [2] it was 0.0053 µM.

`CCc1nc2c(C)cc(C)nc2n1Cc1ccc(N(C)C(C(=O)O)c2ccccc2)cc1` (stereo not given): the IC50 stood at 3.4 µM in test [1] and 0.0082 µM in test [2].

As to `CCc1nc2c(C)cc(C)nc2n1Cc1ccc(N(CC)C(C(=O)O)c2ccccc2)cc1` (stereo not given), the IC50 in test [1] stood at 0.74 µM; in test [2], 0.004 µM.

Consider `CCc1nc2c(C)cc(C)nc2n1Cc1ccc(NC(C(=O)O)c2ccccc2)c(C)c1` (stereo not given), for which the figures for the IC50 in test [1] and in test [2] were 11 µM and 0.1 µM, respectively.

As for `CCc1nc2c(C)cc(C)nc2n1Cc1ccc(NC(C(=O)O)c2cc(C(F)(F)F)cc(C(F)(F)F)c2)cc1` (stereo not given), the IC50 in test [1] worked out at 6 µM; in test [2] it was 0.86 µM.

Regarding `CCc1nc2c(C)cc(C)nc2n1Cc1ccc(N(C(C)CC)C(C(=O)O)c2ccccc2)cc1` (stereo not given), the IC50 in test [1] worked out at 1.6 µM; in test [2] it was 0.08 µM.

With `CCc1nc2c(C)cc(C)nc2n1Cc1ccc(N(CC(C)C)C(C(=O)O)c2ccccc2)cc1` (stereo not given), the IC50 was more than 0.3 µM in test [1] and 0.022 µM in test [2].

`CCc1nc2c(C)cc(C)nc2n1Cc1ccc(N(CC)C(C(=O)O)c2ccccc2Cl)cc1` (stereo not given): the IC50 is more than 10 µM in test [1] and 0.38 µM in test [2].

In the case of `C=CCN(c1ccc(Cn2c(CC)nc3c(C)cc(C)nc32)cc1C)C(C(=O)O)c1ccccc1C` (stereo not given), the IC50 in test [1] worked out at 11 µM; in test [2], 0.082 µM.

As for `CCCN(c1ccc(Cn2c(CC)nc3c(C)cc(C)nc32)cc1C)C(C(=O)O)c1ccccc1` (stereo not given), the IC50 was determined as 4.8 µM in test [1] and 0.012 µM in test [2].

On to `CCc1nc2c(C)cc(C)nc2n1Cc1ccc(N(CC)C(C(=O)O)c2cc(F)ccc2F)cc1` (stereo not given), for which the figures for the IC50 in test [1] and in test [2] were more than 10 µM and 0.088 µM, respectively.

Take `CCc1nc2c(C)cc(C)nc2n1Cc1ccc(N(CC)C(C(=O)O)c2ccccc2)c(C)c1` (stereo not given): the IC50 in test [1] was 8.6 µM; in test [2] it was 0.01 µM.

For the molecule `CCc1nc2c(C)cc(C)nc2n1Cc1ccc(NC(C(=O)O)c2ccccc2)cc1` (stereo not given), the half-inhibitory concentration (IC50) in test [1] came to 21 µM; in test [2], 0.2 µM.

On to `CCCN(c1ccc(Cn2c(CC)nc3c(C)cc(C)nc32)cc1)C(C(=O)NS(=O)(=O)c1ccccc1)c1ccccc1` (stereo not given), for which the IC50 in test [1] was determined as 0.42 µM; in test [2], 0.0008 µM.

Regarding `CCCN(c1ccc(Cn2c(CC)nc3c(C)cc(C)nc32)cc1)C(C(=O)O)c1ccccc1` (stereo not given), the IC50 came to 0.56 µM in test [1] and 0.0053 µM in test [2].

On to `C=CCN(c1ccc(Cn2c(CC)nc3c(C)cc(C)nc32)cc1C)C(C(=O)O)c1ccccc1` (stereo not given), for which the IC50 in test [1] came to 4.3 µM; in test [2], 0.034 µM.

On to `CCCCN(c1ccc(Cn2c(CC)nc3c(C)cc(C)nc32)cc1)C(C(=O)O)c1ccccc1` (stereo not given), for which the IC50 is 0.66 µM in test [1] and 0.094 µM in test [2].

As to `C=CCN(c1ccc(Cn2c(CC)nc3c(C)cc(C)nc32)cc1)C(C(=O)NS(=O)(=O)c1ccccc1)c1ccccc1` (stereo not given), the IC50 turned out to be 2.9 µM in test [1] and 0.001 µM in test [2].

For `CCc1nc2c(C)cc(C)nc2n1Cc1ccc(N(CC)C(C(=O)NS(=O)(=O)c2ccccc2)c2ccccc2)cc1` (stereo not given), the IC50 in test [1] came to 0.2 µM; in test [2], 0.0009 µM.

`CCc1nc2c(C)cc(C)nc2n1Cc1ccc(N(C)C(c2ccccc2)c2nnn[nH]2)cc1` (stereo not given): the IC50 in test [1] is more than 30 µM; in test [2], 0.015 µM.

`C=CCN(c1ccc(Cn2c(CC)nc3c(C)cc(C)nc32)cc1)C(C(=O)O)c1cc(F)ccc1F` (stereo not given): the IC50 in test [1] is 8.8 µM; in test [2] it was 0.2 µM.

Regarding `CCc1nc2c(C)cc(C)nc2n1Cc1ccc(NC(C(=O)O)c2ccccc2C)c(C)c1` (stereo not given), the IC50 in test [1] came to 19 µM; in test [2] it was 0.028 µM.

Regarding `CCc1nc2c(C)cc(C)nc2n1Cc1ccc(N(C)C(C(=O)O)c2ccccc2)c(C)c1` (stereo not given), the IC50 amounted to 11 µM in test [1] and 0.07 µM in test [2].

`CCc1nc2c(C)cc(C)nc2n1Cc1ccc(-c2ccccc2-c2nnn[nH]2)cc1` [L-158809] gave an IC50 in test [1] of more than 10 µM.

Values taken from ChEMBL document CHEMBL1126574, “Non-peptide angiotensin II receptor antagonists. 2. Design, synthesis, and biological activity of N-substituted (phenylamino)phenylacetic acids and acyl sulfonamides” (J Med Chem, 1993).
